Assay results from patent US9663473B2 (Actelion Pharmaceuticals Ltd, priority 2013, dated 2017).

Molecular target: T1, recombinant human ALX receptor (Homo sapiens, UniProt P25090)
T1 construct: expressed in transfected cells; host or cells: HEK293 (HEK293-hALXR-Gα16)
T1 sequence (P25090 1-351): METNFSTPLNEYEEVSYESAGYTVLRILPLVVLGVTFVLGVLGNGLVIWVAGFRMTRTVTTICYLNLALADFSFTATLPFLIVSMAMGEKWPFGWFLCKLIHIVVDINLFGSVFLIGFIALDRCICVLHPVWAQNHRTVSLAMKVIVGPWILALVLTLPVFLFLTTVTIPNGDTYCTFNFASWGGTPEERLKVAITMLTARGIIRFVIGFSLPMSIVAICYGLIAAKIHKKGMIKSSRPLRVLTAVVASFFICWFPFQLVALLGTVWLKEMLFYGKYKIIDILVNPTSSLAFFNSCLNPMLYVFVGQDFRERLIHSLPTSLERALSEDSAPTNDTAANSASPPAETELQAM
Assay: Intracellular calcium measurements (FLIPR), ALX receptor agonistic activity
Assay type: cell-based
Conditions: HEK293-hALXR-Gα16 cells, Fluo-4 calcium signal, normalized to WKYMVm 10 nM
Summary of the method: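 HEK293 cells co-expressing human ALX receptor and Gα16 were loaded with 1 μM Fluo-4 AM for 60 min at 37° C., then exposed to serially diluted compounds on FLIPR Tetra. Peak fluorescence above baseline (ex 488/em 540 nm) was normalized to 10 nM WKYMVm as high control.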

Row | SMILES | EC50
1 | COc1ccc(C[C@@H](NC(=O)NCc2ccccn2)c2nc3ccccc3[nH]2)cc1 [Example 268, (R)-1-(1-(1H-Benzo[d]imidazol-2-yl)-2-(4-methoxyphenyl)ethyl)-3-(pyridin-2-ylmethyl)urea] | 0.659 µM
2 | COc1ccc(C[C@@H](NC(=O)NCCc2ccc(C(F)(F)F)cc2)c2nc3ccccc3[nH]2)cc1 [Example 269, (R)-1-(1-(1H-Benzo[d]imidazol-2-yl)-2-(4-methoxyphenyl)ethyl)-3-(4-(trifluoromethyl)phenethyl)urea] | 0.471 µM
3 | COc1ccc(C[C@@H](NC(=O)NC(C)(C)c2ccc(C)cc2)c2nc3ccccc3[nH]2)cc1 [Example 270, (R)-1-(1-(1H-Benzo[d]imidazol-2-yl)-2-(4-methoxyphenyl)ethyl)-3-(2-(p-tolyl)propan-2-yl)urea] | 0.225 µM
4 | COc1ccc(C[C@@H](NC(=O)NCc2ccc(CN(C)C)cc2)c2nc3ccccc3[nH]2)cc1 [Example 272, (R)-1-(1-(1H-Benzo[d]imidazol-2-yl)-2-(4-methoxyphenyl)ethyl)-3-(4-((dimethylamino)methyl)benzyl)urea] | 0.339 µM
5 | COc1ccc(C[C@@H](NC(=O)NCc2cccc(C(F)(F)F)c2Cl)c2nc3ccccc3[nH]2)cc1 [Example 273, (R)-1-(1-(1H-Benzo[d]imidazol-2-yl)-2-(4-methoxyphenyl)ethyl)-3-(2-chloro-3-(trifluoromethyl)benzyl)urea] | 0.234 µM
6 | COc1ccc(C[C@@H](NC(=O)NCc2cccc(C)c2)c2nc3ccccc3[nH]2)cc1 [Example 276, (R)-1-(1-(1H-Benzo[d]imidazol-2-yl)-2-(4-methoxyphenyl)ethyl)-3-(3-methylbenzyl)urea] | 0.229 µM
7 | COc1ccc(C[C@@H](NC(=O)NCCc2cccnc2)c2nc3ccccc3[nH]2)cc1 [Example 280, (R)-1-(1-(1H-Benzo[d]imidazol-2-yl)-2-(4-methoxyphenyl)ethyl)-3-(2-(pyridin-3-yl)ethyl)urea] | 0.25 µM
8 | COc1ccc(C[C@@H](NC(=O)NCC2COc3cnccc32)c2nc3ccccc3[nH]2)cc1 (stereo partly drawn) [Example 282, 1-((R)-1-(1H-Benzo[d]imidazol-2-yl)-2-(4-methoxyphenyl)ethyl)-3-((2,3-dihydrofuro[2,3-c]pyridin-3-yl)methyl)urea] | 0.351 µM
9 | COc1ccc(C[C@@H](NC(=O)NC2(c3cccc(Cl)c3)CC2)c2nc3ccccc3[nH]2)cc1 [Example 283, (R)-1-(1-(1H-Benzo[d]imidazol-2-yl)-2-(4-methoxyphenyl)ethyl)-3-(1-(3-chlorophenyl)cyclopropyl)urea] | 0.295 µM
10 | COc1ccc(C[C@@H](NC(=O)NCc2ccn(-c3ccccc3)n2)c2nc3ccccc3[nH]2)cc1 [Example 284, (R)-1-(1-(1H-Benzo[d]imidazol-2-yl)-2-(4-methoxyphenyl)ethyl)-3-((1-phenyl-1H-pyrazol-3-yl)methyl)urea] | 0.353 µM
11 | COc1ccc(C[C@@H](NC(=O)NCCc2cnccn2)c2nc3ccccc3[nH]2)cc1 [Example 285, (R)-1-(1-(1H-Benzo[d]imidazol-2-yl)-2-(4-methoxyphenyl)ethyl)-3-(2-(pyrazin-2-yl)ethyl)urea] | 0.284 µM
12 | COc1ccc(C[C@@H](NC(=O)NCc2ccncc2)c2nc3ccccc3[nH]2)cc1 [Example 288, (R)-1-(1-(1H-Benzo[d]imidazol-2-yl)-2-(4-methoxyphenyl)ethyl)-3-(pyridin-4-ylmethyl)urea] | 0.853 µM
13 | COc1ccc(C[C@@H](NC(=O)NCc2ncc(Br)cc2F)c2nc3ccccc3[nH]2)cc1 [Example 291, (R)-1-(1-(1H-Benzo[d]imidazol-2-yl)-2-(4-methoxyphenyl)ethyl)-3-((5-bromo-3-fluoropyridin-2-yl)methyl)urea] | 0.439 µM
14 | COc1ccc(C[C@@H](NC(=O)NCCc2ccncc2)c2nc3ccccc3[nH]2)cc1 [Example 295, (R)-1-(1-(1H-Benzo[d]imidazol-2-yl)-2-(4-methoxyphenyl)ethyl)-3-(2-(pyridin-4-yl)ethyl)urea] | 0.645 µM
15 | COc1ccc(C[C@@H](NC(=O)NCCc2ccc(OC)cn2)c2nc3ccccc3[nH]2)cc1 [Example 296, (R)-1-(1-(1H-Benzo[d]imidazol-2-yl)-2-(4-methoxyphenyl)ethyl)-3-(2-(5-methoxypyridin-2-yl)ethyl)urea] | 0.227 µM

The next compounds have a lower EC50 than those just listed; values first:

Row | EC50 | SMILES
16 | 0.014 µM | O=C(N[C@H](Cc1ccc(C(F)(F)F)cc1)c1nc2cc(F)ccc2[nH]1)NC12CCC(O)(CC1)CC2 [Example 267, (R)-1-(1-(5-Fluoro-1H-benzo[d]imidazol-2-yl)-2-(4-(trifluoromethyl)phenyl)ethyl)-3-(4-hydroxybicyclo[2.2.2]octan-1-yl)urea]
17 | 0.12 µM | COc1ccc(C[C@@H](NC(=O)NC(C)c2ccc(OC(F)F)cc2)c2nc3ccccc3[nH]2)cc1 (stereo partly drawn) [Example 271, 1-((R)-1-(1H-Benzo[d]imidazol-2-yl)-2-(4-methoxyphenyl)ethyl)-3-(1-(4-(difluoromethoxy)phenyl)ethyl)urea]
18 | 0.115 µM | COc1ccc(C[C@@H](NC(=O)NCCc2ccccc2C(F)(F)F)c2nc3ccccc3[nH]2)cc1 [Example 274, (R)-1-(1-(1H-Benzo[d]imidazol-2-yl)-2-(4-methoxyphenyl)ethyl)-3-(2-(trifluoromethyl)phenethyl)urea]
19 | 0.126 µM | COc1ccc(C[C@@H](NC(=O)NCCc2ccc(C)c(C)c2)c2nc3ccccc3[nH]2)cc1 [Example 275, (R)-1-(1-(1H-Benzo[d]imidazol-2-yl)-2-(4-methoxyphenyl)ethyl)-3-(3,4-dimethylphenethyl)urea]
20 | 0.082 µM | COc1ccc(C[C@@H](NC(=O)NC2(c3ccc(C)cc3)CC2)c2nc3ccccc3[nH]2)cc1 [Example 277, (R)-1-(1-(1H-Benzo[d]imidazol-2-yl)-2-(4-methoxyphenyl)ethyl)-3-(1-(p-tolyl)cyclopropyl)urea]
21 | 0.051 µM | COc1ccc(C[C@@H](NC(=O)NCC2(c3ccccc3)CCCCC2)c2nc3ccccc3[nH]2)cc1 [Example 278, (R)-1-(1-(1H-Benzo[d]imidazol-2-yl)-2-(4-methoxyphenyl)ethyl)-3-((1-phenylcyclohexyl)methyl)urea]
22 | 0.04 µM | CCC(NC(=O)N[C@H](Cc1ccc(OC)cc1)c1nc2ccccc2[nH]1)c1ccccc1 (stereo partly drawn) [Example 279, 1-((R)-1-(1H-Benzo[d]imidazol-2-yl)-2-(4-methoxyphenyl)ethyl)-3-(1-phenylpropyl)urea]
23 | 0.105 µM | COc1ccc(C[C@@H](NC(=O)NC[C@@H](O)c2ccccc2)c2nc3ccccc3[nH]2)cc1 [Example 281, 1-((R)-1-(1H-Benzo[d]imidazol-2-yl)-2-(4-methoxyphenyl)ethyl)-3-((S)-2-hydroxy-2-phenylethyl)urea]
24 | 0.102 µM | COc1ccc(C[C@@H](NC(=O)NCCN2CCc3ccccc32)c2nc3ccccc3[nH]2)cc1 [Example 286, (R)-1-(1-(1H-Benzo[d]imidazol-2-yl)-2-(4-methoxyphenyl)ethyl)-3-(2-(indolin-1-yl)ethyl)urea]
25 | 0.092 µM | COc1ccc(C[C@@H](NC(=O)NCc2ncccc2C)c2nc3ccccc3[nH]2)cc1 [Example 287, (R)-1-(1-(1H-Benzo[d]imidazol-2-yl)-2-(4-methoxyphenyl)ethyl)-3-((3-methylpyridin-2-yl)methyl)urea]
26 | 0.059 µM | CCn1ccc(C(C)NC(=O)N[C@H](Cc2ccc(OC)cc2)c2nc3ccccc3[nH]2)n1 (stereo partly drawn) [Example 289, 1-((R)-1-(1H-Benzo[d]imidazol-2-yl)-2-(4-methoxyphenyl)ethyl)-3-(1-(1-ethyl-1H-pyrazol-3-yl)ethyl)urea]
27 | 0.037 µM | COc1ccc(C[C@@H](NC(=O)NC[C@H](O)c2ccccc2)c2nc3ccccc3[nH]2)cc1 [Example 290, 1-((R)-1-(1H-Benzo[d]imidazol-2-yl)-2-(4-methoxyphenyl)ethyl)-3-((R)-2-hydroxy-2-phenylethyl)urea]
28 | 0.081 µM | COc1ccc(C[C@@H](NC(=O)NC(c2ccccn2)C(F)(F)F)c2nc3ccccc3[nH]2)cc1 (stereo partly drawn) [Example 292, 1-((R)-1-(1H-Benzo[d]imidazol-2-yl)-2-(4-methoxyphenyl)ethyl)-3-(2,2,2-trifluoro-1-(pyridin-2-yl)ethyl)urea]
29 | 0.168 µM | COc1ccc(C[C@@H](NC(=O)NCc2ccn(CC(F)(F)F)n2)c2nc3ccccc3[nH]2)cc1 [Example 293, (R)-1-(1-(1H-Benzo[d]imidazol-2-yl)-2-(4-methoxyphenyl)ethyl)-3-((1-(2,2,2-trifluoroethyl)-1H-pyrazol-3-yl)methyl)urea]
30 | 0.0076 µM | COc1ccc(C[C@@H](NC(=O)NCc2ccnn2-c2ccc(OC)cc2)c2nc3ccccc3[nH]2)cc1 [Example 294, (R)-1-(1-(1H-Benzo[d]imidazol-2-yl)-2-(4-methoxyphenyl)ethyl)-3-((1-(4-methoxyphenyl)-1H-pyrazol-5-yl)methyl)urea]
31 | 0.217 µM | COc1ccc(C[C@@H](NC(=O)NCCN2CCc3ccccc3C2)c2nc3ccccc3[nH]2)cc1 [Example 297, (R)-1-(1-(1H-Benzo[d]imidazol-2-yl)-2-(4-methoxyphenyl)ethyl)-3-(2-(3,4-dihydroisoquinolin-2(1H)-yl)ethyl)urea]
32 | 0.203 µM | COc1ccc(C[C@@H](NC(=O)NCc2nn(C)c3ccccc23)c2nc3ccccc3[nH]2)cc1 [Example 298, (R)-1-(1-(1H-Benzo[d]imidazol-2-yl)-2-(4-methoxyphenyl)ethyl)-3-((1-methyl-1H-indazol-3-yl)methyl)urea]
